Columns and labels:
Experiment in all cases: selectivity profiling in a panel of 340 wild-type kinases (Reaction Biology Europe)
Format in all cases: binding
340 wild-type kinases [1] = biological target: T1, 340 wild-type kinases (Homo sapiens, UniProt O43318); settings: MAP3K7/MAP3K7IP1; 0.2 µM; read-out: residual activity
T1 construct: purchased Reaction Biology Europe
T1 sequence (O43318 1-606): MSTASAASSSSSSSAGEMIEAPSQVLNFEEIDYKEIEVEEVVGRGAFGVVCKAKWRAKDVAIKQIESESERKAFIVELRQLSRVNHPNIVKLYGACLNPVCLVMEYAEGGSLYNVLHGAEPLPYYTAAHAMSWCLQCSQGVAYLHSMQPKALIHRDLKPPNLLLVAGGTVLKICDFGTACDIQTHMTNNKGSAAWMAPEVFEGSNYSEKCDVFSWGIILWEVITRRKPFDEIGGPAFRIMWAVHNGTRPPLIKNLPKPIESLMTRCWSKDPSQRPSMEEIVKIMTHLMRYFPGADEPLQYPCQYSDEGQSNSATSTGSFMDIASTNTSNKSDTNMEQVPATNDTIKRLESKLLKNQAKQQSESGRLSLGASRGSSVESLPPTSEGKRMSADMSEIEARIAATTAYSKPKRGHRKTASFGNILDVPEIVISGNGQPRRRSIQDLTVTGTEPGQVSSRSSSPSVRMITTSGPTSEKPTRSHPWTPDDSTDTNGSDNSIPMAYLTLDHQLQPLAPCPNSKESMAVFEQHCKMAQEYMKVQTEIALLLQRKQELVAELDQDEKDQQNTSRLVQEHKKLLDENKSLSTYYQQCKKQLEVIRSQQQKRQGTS
From the text: (§1) Potential interactions between 2015 and 340 wild-type kinases were checked by means of a competition binding assay performed by Reaction Biology Europe (Supplementary Table 15).

340 wild-type kinases [2] = biological target: T2, 340 wild-type kinases (Homo sapiens, UniProt O75582); settings: 1 µM 2015; read-out: RPS6KA5 residual activity
T2 construct: purchased Reaction Biology Europe
From the text: as §1

340 wild-type kinases [3] = biological target: T3, 340 wild-type kinases (Homo sapiens, UniProt P27361); settings: 0.2 µM 2015; read-out: ERK1 residual activity
T3 construct: purchased Reaction Biology Europe
From the text: as §1

340 wild-type kinases [4] = biological target: T4, 340 wild-type kinases (Homo sapiens, UniProt P36896); settings: 1 µM 2015; read-out: ACVR1B residual activity
T4 construct: purchased Reaction Biology Europe
T4 sequence (P36896 24-505): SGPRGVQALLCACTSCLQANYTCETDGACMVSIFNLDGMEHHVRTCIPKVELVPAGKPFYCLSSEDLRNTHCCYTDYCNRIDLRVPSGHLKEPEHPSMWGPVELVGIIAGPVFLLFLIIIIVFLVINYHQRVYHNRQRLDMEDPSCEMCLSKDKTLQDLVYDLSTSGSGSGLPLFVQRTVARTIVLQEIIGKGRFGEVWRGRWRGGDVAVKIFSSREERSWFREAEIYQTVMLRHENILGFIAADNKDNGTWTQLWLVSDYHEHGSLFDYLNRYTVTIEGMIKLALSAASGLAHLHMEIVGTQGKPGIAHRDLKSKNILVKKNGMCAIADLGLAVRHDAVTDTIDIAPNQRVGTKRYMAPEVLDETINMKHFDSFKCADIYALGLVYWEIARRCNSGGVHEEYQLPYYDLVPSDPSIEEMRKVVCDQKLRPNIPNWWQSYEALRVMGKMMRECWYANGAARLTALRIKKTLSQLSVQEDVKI
From the text: as §1

340 wild-type kinases [5] = biological target: T5, 340 wild-type kinases (Homo sapiens, UniProt Q00537); settings: CDK17/p35NCK; 0.2 µM; read-out: residual activity
T5 construct: purchased Reaction Biology Europe
From the text: as §1

340 wild-type kinases [6] = biological target: T6, 340 wild-type kinases (Homo sapiens, UniProt Q8TDX7); settings: NEK7; 1 µM; read-out: residual activity
T6 construct: purchased Reaction Biology Europe
From the text: as §1

340 wild-type kinases [7] = biological target: T7, 340 wild-type kinases (Homo sapiens, UniProt Q9NZJ5); settings: 0.2 µM 2015; read-out: EIF2AK3 residual activity
T7 construct: purchased Reaction Biology Europe
T7 sequence (Q9NZJ5 30-1116): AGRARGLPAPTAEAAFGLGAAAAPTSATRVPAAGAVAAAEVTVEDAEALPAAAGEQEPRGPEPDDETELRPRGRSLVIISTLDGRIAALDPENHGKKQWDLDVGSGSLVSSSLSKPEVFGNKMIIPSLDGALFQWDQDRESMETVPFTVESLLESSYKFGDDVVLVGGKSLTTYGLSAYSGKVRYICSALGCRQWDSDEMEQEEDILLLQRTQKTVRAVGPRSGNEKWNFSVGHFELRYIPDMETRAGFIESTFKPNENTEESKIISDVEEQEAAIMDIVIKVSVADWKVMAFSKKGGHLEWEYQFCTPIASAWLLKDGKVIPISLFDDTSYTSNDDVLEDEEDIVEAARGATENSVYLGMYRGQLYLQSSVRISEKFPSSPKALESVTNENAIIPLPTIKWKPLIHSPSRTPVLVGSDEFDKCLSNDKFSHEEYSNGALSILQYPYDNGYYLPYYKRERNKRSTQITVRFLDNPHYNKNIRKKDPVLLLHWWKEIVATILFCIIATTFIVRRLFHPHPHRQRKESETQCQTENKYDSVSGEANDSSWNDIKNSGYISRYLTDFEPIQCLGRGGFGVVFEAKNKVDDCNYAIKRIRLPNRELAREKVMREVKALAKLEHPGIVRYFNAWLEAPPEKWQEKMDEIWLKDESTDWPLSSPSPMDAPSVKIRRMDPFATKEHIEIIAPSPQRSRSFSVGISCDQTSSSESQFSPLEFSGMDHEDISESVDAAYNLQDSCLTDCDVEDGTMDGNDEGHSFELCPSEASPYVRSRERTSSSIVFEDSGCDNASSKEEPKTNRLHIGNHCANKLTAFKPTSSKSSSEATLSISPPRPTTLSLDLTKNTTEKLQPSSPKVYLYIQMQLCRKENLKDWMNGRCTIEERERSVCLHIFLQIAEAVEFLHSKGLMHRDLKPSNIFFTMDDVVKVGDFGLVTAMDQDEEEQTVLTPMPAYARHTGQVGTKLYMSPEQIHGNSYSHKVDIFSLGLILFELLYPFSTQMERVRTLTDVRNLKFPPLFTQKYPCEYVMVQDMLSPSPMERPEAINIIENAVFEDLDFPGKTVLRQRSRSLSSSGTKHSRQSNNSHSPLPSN
From the text: as §1

340 wild-type kinases [8] = biological target: T8, 340 wild-type kinases (Homo sapiens, UniProt Q9UPE1); settings: STK23; 1 µM; read-out: residual activity
T8 construct: purchased Reaction Biology Europe
From the text: as §1

340 wild-type kinases [9] = biological target: T9, 340 wild-type kinases (Homo sapiens, UniProt Q9UQM7); settings: CAMK2A; 0.2 µM; read-out: residual activity
T9 construct: purchased Reaction Biology Europe
From the text: as §1

T3 sequence (P27361 whole entry): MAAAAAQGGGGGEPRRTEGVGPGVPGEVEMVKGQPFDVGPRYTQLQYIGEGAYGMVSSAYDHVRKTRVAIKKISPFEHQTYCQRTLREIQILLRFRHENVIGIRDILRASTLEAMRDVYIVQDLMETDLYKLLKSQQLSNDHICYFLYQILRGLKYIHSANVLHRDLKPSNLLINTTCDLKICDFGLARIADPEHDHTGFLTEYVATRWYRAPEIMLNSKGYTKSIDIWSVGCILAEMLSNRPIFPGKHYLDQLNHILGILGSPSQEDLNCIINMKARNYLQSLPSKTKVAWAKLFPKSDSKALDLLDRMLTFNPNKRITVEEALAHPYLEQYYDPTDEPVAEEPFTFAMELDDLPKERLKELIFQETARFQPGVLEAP
T2 sequence (O75582 whole entry): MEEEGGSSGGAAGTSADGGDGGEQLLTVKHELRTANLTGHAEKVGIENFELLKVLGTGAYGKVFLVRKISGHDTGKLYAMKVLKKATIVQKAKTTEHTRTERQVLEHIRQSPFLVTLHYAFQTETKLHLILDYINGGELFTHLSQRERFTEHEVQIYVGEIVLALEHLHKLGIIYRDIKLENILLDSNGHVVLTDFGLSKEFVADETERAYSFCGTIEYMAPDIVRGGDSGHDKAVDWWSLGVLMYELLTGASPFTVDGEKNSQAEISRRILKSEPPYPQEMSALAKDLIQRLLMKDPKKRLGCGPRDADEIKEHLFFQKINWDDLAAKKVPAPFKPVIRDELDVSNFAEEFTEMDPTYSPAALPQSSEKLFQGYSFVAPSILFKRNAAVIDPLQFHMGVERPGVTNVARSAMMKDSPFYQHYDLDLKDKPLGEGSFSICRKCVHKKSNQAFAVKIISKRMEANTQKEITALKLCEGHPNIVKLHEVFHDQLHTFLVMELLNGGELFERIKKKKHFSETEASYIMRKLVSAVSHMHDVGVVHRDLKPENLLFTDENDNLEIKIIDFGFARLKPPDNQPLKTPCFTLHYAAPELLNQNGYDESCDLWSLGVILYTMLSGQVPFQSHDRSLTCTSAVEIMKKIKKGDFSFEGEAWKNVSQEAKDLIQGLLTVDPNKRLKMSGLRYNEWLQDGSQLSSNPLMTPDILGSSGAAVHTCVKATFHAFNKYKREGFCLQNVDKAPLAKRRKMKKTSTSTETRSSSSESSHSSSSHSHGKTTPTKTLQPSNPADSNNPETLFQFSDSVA
T9 sequence (Q9UQM7 whole entry): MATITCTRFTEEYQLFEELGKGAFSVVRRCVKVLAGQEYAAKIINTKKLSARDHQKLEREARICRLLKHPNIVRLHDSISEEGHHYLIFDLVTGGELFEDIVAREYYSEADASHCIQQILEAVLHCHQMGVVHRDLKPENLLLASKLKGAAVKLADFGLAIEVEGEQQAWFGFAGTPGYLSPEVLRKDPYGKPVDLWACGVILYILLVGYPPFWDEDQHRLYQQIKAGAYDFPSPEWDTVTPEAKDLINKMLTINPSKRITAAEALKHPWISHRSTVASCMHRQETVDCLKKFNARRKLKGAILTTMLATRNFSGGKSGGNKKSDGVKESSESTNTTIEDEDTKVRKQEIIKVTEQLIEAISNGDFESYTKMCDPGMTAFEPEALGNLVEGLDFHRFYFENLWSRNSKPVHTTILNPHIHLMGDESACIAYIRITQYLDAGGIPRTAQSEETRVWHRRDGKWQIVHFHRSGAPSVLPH
T8 sequence (Q9UPE1 whole entry): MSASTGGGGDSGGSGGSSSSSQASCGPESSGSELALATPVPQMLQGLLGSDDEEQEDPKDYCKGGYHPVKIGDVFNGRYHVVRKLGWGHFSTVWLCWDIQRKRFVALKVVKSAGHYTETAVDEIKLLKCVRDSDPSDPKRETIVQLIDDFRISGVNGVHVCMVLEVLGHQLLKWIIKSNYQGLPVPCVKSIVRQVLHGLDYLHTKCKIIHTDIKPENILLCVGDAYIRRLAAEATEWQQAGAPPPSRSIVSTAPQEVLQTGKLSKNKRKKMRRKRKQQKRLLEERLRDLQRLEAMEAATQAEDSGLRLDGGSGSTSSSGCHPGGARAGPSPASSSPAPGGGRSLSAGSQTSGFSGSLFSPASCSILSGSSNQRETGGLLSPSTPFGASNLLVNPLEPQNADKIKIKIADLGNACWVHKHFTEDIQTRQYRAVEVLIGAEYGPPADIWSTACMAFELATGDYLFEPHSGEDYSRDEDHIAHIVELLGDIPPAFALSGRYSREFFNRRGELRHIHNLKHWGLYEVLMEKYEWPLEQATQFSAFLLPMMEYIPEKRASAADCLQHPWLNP
T6 sequence (Q8TDX7 whole entry): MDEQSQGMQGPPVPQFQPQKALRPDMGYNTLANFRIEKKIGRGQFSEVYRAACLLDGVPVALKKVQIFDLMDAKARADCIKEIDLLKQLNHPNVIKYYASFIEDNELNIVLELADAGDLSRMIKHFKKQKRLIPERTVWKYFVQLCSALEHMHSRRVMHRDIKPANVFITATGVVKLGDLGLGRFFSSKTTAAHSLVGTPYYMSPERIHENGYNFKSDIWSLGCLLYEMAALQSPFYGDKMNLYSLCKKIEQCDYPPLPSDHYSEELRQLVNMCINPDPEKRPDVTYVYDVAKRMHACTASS
T5 sequence (Q00537 whole entry): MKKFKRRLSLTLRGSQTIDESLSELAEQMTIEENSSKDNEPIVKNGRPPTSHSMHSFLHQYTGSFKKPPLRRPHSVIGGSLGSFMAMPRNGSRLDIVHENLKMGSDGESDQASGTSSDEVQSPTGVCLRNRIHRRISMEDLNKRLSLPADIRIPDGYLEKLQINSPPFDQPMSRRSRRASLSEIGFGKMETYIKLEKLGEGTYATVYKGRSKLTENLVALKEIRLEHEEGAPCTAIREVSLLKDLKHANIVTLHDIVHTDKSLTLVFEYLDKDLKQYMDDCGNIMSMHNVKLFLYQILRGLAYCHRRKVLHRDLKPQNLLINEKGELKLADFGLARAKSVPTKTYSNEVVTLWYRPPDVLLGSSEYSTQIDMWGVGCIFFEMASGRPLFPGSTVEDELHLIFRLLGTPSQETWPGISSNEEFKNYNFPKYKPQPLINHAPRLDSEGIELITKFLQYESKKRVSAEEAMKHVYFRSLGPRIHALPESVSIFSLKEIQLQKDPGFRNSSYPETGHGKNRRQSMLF

In the case of `CNC(=O)c1ccc2c(c1)C(=O)c1ccc(Nc3ccc(F)c(NC(=O)C4CC4)c3)cc1CC2` [Compound 2015], the remaining activity at 0.2 µM (340 wild-type kinases [1]) is reported as 96.8%, the remaining activity at 1 µM (340 wild-type kinases [2]) is reported as 90.2% and the remaining activity at 0.2 µM (340 wild-type kinases [3]) is reported as 108%. It also gave a remaining activity at 1 µM (340 wild-type kinases [4]) of 86.1%, a remaining activity at 0.2 µM (340 wild-type kinases [5]) of 94.8% and a remaining activity at 1 µM (340 wild-type kinases [6]) of 110%. For the same compound, the remaining activity at 0.2 µM (340 wild-type kinases [7]) was 93.3%, the remaining activity at 1 µM (340 wild-type kinases [8]) was 94.1% and the remaining activity at 0.2 µM (340 wild-type kinases [9]) was 102%.
